Legend:
ALR (SF-ALR) [1] = biological target: T1, ALR (SF-ALR) (Homo sapiens, UniProt P55789); assay: 1H-15N HSQC NMR titration (slow exchange); assay type: binding
T1 construct: gene GFER; SF-ALR, residues 81–205

ALR (SF-ALR) [2] = biological target: T1, ALR (SF-ALR); assay: 1H-15N HSQC NMR titration of […] SF-ALR (slow exchange); IC50 from Amplex Red-HRP assay with pure enzyme; assay type: biochemical

T1 sequence (P55789 81-205): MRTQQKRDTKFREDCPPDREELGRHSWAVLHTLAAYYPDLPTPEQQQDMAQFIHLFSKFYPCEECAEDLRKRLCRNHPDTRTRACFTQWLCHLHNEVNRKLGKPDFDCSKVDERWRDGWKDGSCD

Structure (SMILES)	1H-15N HSQC NMR titration (slow exchange) (ALR (SF-ALR) [1])	IC50 (ALR (SF-ALR) [2])
CN(c1ccc(C2=NN=C(NC3CC3)SC2)cc1)S(C)(=O)=O [MB-7]	perturbation on the HN signals in the 2D NMR spectra (ES-1, MB-5, MB-7, MB-8, and MB-13)	–
CC(=O)Nc1cccc(-c2csc(Nc3ccc(C)cn3)n2)c1 [MB-8]	–	9.02 µM
Nc1ccc(N2CCN(C(=O)c3ccco3)CC2)cc1 [MB-13]	–	10.7 µM

Source: paper PMC10816046, “The Interaction and Effect of a Small MitoBlock Library as Inhibitor of ALR Protein–Protein Interaction Pathway” (International Journal of Molecular Sciences, 2024)
